Source: patent US20110039762A1, “TARGETED ANTIMICROBIAL MOIETIES” (C3 JIAN, INC., priority 2009, published 2011)
Entries after “also recorded” stand apart in the source; their conditions may differ.

Key:
E. coli = test: Kill or inhibit growth/proliferation; morphology, biofilm and growth disruption (Tables 5, 6); type: cell-based, Escherichia coli; set-up: key: A: Peptide aggregates; B: Less hyphal formation; Clumps; Diffuse clumps and small polyps; F: Diffuse growth; H: Thin; I: Growth inhibition; Microcolony formation; Rippled; Small polyps; Thick; W: Halo formation on top, microlonies on bottom; also: test concentration or dose not given here
microorganisms = test: Peptides having multiple activities (targeting/binding, antimicrobial, growth or phenotype altering)
Source text: In certain embodiments, peptides described herein can have multiple activities. Thus for example, a peptide can have both binding/targeting activity and antimicrobial activity. Such peptides can be used, e.g., in a chimeric construct, for any or all of these properties. Thus, for example, a peptide designated “B” in Table 8 can be used as a targeting peptide. If it is also designated G or M it can also be used for antimicrobial activity.

[1] = system: microorganisms (e.g., bacteria, yeasts, fungi); test: Targeting peptide binding to target microorganisms (Table 3); details: preferably 1x PBS; for Target(s): microorganism(s) the targeting peptide binds; for Target(s) (microorganisms bound by the targeting peptide): peptide binding in aqueous buffers varied by peptide solubility
MRSA = test: Kill or inhibit growth/proliferation; morphology, biofilm and growth disruption (Tables 5, 6); type: cell-based, Methicillin-resistant Staphylococcus aureus; set-up: key: A: Peptide aggregates; B: Less hyphal formation; Clumps; Diffuse clumps and small polyps; F: Diffuse growth; H: Thin; I: Growth inhibition; Microcolony formation; Rippled; Small polyps; Thick; W: Halo formation on top, microlonies on bottom; also: test concentration or dose not given here
E. faecalis = test: as above; type: cell-based, Enterococcus faecalis; set-up: key: A: Peptide aggregates; B: Less hyphal formation; Clumps; Diffuse clumps and small polyps; F: Diffuse growth; H: Thin; I: Growth inhibition; Microcolony formation; Rippled; Small polyps; Thick; W: Halo formation on top, microlonies on bottom
S. epidermidis = test: as above; type: cell-based, Staphylococcus epidermidis; set-up: key: A: Peptide aggregates; B: Less hyphal formation; Clumps; Diffuse clumps and small polyps; F: Diffuse growth; H: Thin; I: Growth inhibition; Microcolony formation; Rippled; Small polyps; Thick; W: Halo formation on top, microlonies on bottom
S. pneumoniae = test: as above; type: cell-based, Streptococcus pneumoniae; set-up: key: A: Peptide aggregates; B: Less hyphal formation; Clumps; Diffuse clumps and small polyps; F: Diffuse growth; H: Thin; I: Growth inhibition; Microcolony formation; Rippled; Small polyps; Thick; W: Halo formation on top, microlonies on bottom
[2] = peptide binding conducted in aqueous buffers varied by peptide solubility
For Organism, effect (morphology, biofilm and growth disruption) in this document: test concentration or dose not given here.
For Organism, effect in this document: test concentration or dose not given here.

Substance	Activities (microorganisms)	Organism, effect (MRSA)	Organism, effect (E. faecalis)	Organism, effect (S. epidermidis)	Organism, effect (S. pneumoniae)	Target(s) (microorganisms bound by the targeting peptide) [1]	Organism, effect (morphology, biofilm and growth disruption) (E. faecalis)	Organism, effect (morphology, biofilm and growth disruption) (S. pneumoniae)	other results
PF-344: peptide having multiple activities (DERLPEAKAIRNFNGSVMVLGR; Peptide with targeting and/or antimicrobial activity)	G B								Organism, effect (E. coli): E. coli (A); Target(s) ([1]; binding in aqueous buffers depending on peptide solubility): B. subtilis; also recorded: C. jejuni
PF-394: peptide having multiple activities (chain 1 VLKEECYQKN; chain 2 VLKEECYQKN; Peptide with targeting and/or antimicrobial activity)	G B	MRSA (C)	E. faecalis (A)						Target(s) [1, 2]: S. epidermidis and MRSA and C. jejuni
PF-407: peptide having multiple activities (KPKNKKEKTVISYEKLLSMY; Peptide with targeting and/or antimicrobial activity)	G B	MRSA (C)	E. faecalis (R)	S. epidermidis (M)	S. pneumoniae (R)				
PF-429: peptide having multiple activities (AATLICVGSGIMSSL; Peptide with targeting and/or antimicrobial activity)	G B	MRSA (C)	E. faecalis (C)	S. epidermidis (C)	S. pneumoniae (M)				Target(s) [1, 2]: S. epidermidis; also recorded: S. pneumoniae; also recorded: C. jeikeium
PF-447: peptide having multiple activities (chain 1 IDKSRNKDQFSHIFGLYNICSG; chain 2 IDKSRNKDQFSHIFGLYNICSG; Peptide with targeting and/or antimicrobial activity)	G B	MRSA (C)	E. faecalis (C)	S. epidermidis (C)	S. pneumoniae (C)				Target(s) [1, 2]: S. epidermidis; also recorded: M. luteus; also recorded: E. coli; also recorded: S. pneumoniae
PF-450: peptide having multiple activities (chain 1 HRNLIILQRTIFI; chain 2 HRNLIILQRTIFI; Peptide with targeting and/or antimicrobial activity)	G B	MRSA (C)	E. faecalis (C)		S. pneumoniae (C)				
PF-544: peptide having multiple activities (chain 1 FGEKQMRSWWKVHWFHP; chain 2 FGEKQMRSWWKVHWFHP; Peptide with targeting and/or antimicrobial activity)	G B	MRSA (D)	E. faecalis (R)	S. epidermidis (D)	S. pneumoniae (M)				
PF-613: peptide having multiple activities (ADEFAKL; Peptide with targeting and/or antimicrobial activity)	G B	MRSA (C)	E. faecalis (A)	S. epidermidis (R)		C. jeikeium			
PF-616: peptide having multiple activities (IVFVVTKEKK; Peptide with targeting and/or antimicrobial activity)	G B		E. faecalis (A)	S. epidermidis (R)		C. jeikeium			
PF-618 (KLNTLNKKDNPSLNDQDKNAVLNLLALAK; Peptide with targeting and/or antimicrobial activity)			E. faecalis (H)		S. pneumoniae (I)				
PF-621: peptide having multiple activities (PPSSFLV; Peptide with targeting and/or antimicrobial activity)	G B		E. faecalis (H)		S. pneumoniae (I)	S. epidermidis; also recorded: C. albicans			
PF-631: peptide having multiple activities (chain 1 LIIYFSKTGNTARATRQI; chain 2 LIIYFSKTGNTARATRQI; Peptide with targeting and/or antimicrobial activity)	G B		E. faecalis (H)		S. pneumoniae (I)	S. epidermidis and P. aeruginosa and C. albicans and MRSA and S. pneumoniae and E. faecalis and C. jeikeium			
PF-638: peptide having multiple activities (chain 1 TFILPK; chain 2 TFILPK; Peptide with targeting and/or antimicrobial activity)	G B	MRSA (M)	E. faecalis (H)	S. epidermidis (R)	S. pneumoniae (I)	S. epidermidis and C. albicans and MRSA and C. jeikeium			
PF-643 (chain 1 VRCRL; chain 2 VRCRL; Peptide with targeting and/or antimicrobial activity)		MRSA (C)	E. faecalis (R)		S. pneumoniae (R)	Mycobacteria spp			
PF-664: peptide having multiple activities (chain 1 DQLCVEYPARVSTG; chain 2 DQLCVEYPARVSTG; Peptide with targeting and/or antimicrobial activity)	G B					M. smegmatis	E. faecalis (R)	S. pneumoniae (M)	Organism, effect (morphology, biofilm and growth disruption) (S. epidermidis): S. epidermidis (M); Organism, effect (morphology, biofilm and growth disruption) (MRSA): MRSA (R)
PF-667 (chain 1 PAHQRLRIDQRLVADRDMVQDYES; chain 2 PAHQRLRIDQRLVADRDMVQDYES; Peptide with targeting and/or antimicrobial activity)						Mycobacteria spp	E. faecalis (R)	S. pneumoniae (R)	Organism, effect (morphology, biofilm and growth disruption) (S. epidermidis): S. epidermidis (R); Organism, effect (morphology, biofilm and growth disruption) (MRSA): MRSA (R)
PF-675 (chain 1 EIIPISPTRRCEMHTMSSAEYRGL; chain 2 EIIPISPTRRCEMHTMSSAEYRGL; Peptide with targeting and/or antimicrobial activity)						Mycobacteria spp	E. faecalis (R)	S. pneumoniae (C)	
PF-677 (chain 1 TCRGAGMH; chain 2 TCRGAGMH; Peptide with targeting and/or antimicrobial activity)						Mycobacteria spp	E. faecalis (R)	S. pneumoniae (D)	Organism, effect (morphology, biofilm and growth disruption) (S. epidermidis): S. epidermidis (R); Organism, effect (morphology, biofilm and growth disruption) (MRSA): MRSA (D)
PF-690 (chain 1 MIPLAGDPVSSHRTVEFGVLGTYLVSGGSL; chain 2 MIPLAGDPVSSHRTVEFGVLGTYLVSGGSL; Peptide with targeting and/or antimicrobial activity)						Mycobacteria spp	E. faecalis (R)	S. pneumoniae (M)	Organism, effect (morphology, biofilm and growth disruption) (S. epidermidis): S. epidermidis (R); Organism, effect (morphology, biofilm and growth disruption) (MRSA): MRSA (R)
PF-695 (chain 1 ALSVMLGNIPLVVPNANQL; chain 2 ALSVMLGNIPLVVPNANQL; Peptide with targeting and/or antimicrobial activity)						Mycobacteria spp	E. faecalis (R)	S. pneumoniae (C)	Organism, effect (morphology, biofilm and growth disruption) (MRSA): MRSA (R)
